Measurements taken from patent publication US20230147312A1, “TREATMENT OF ACUTE RESPIRATORY DISTRESS SYNDROME AND RELATED CONDITIONS WITH ANTAGONISTS OF E-SELECTIN” (GLYCOMIMETICS, INC., priority 2020, published 2023).
Entries after “also recorded” stand apart in the source; their conditions may differ. Read-outs that look alike come from different tables or passages of the source.

Assays:
[1] = system: Human lung microvascular endothelial cells (HMVEC-L); settings: HMVEC-L treated with 10 μM; cited from earlier work
COVID-19 patients = settings: of six COVID-19 patients in the ICU; cited from earlier work
animals [2] = experiment: toxicity in animals
humans [3] = experiment: toxicity in Phase 1 clinical trials / humans
[4] = system: human umbilical vein endothelial cells (HUVEC); settings: cytokine treatment over 4 hours, vs Medium control; cited from earlier work
[5] = system: human dermal microvascular endothelial cells (HDMEC); settings: cytokine treatment over 4 hours, vs Medium control; cited from earlier work
E-selectin = target: T1, E-selectin (Homo sapiens, UniProt P16581); experiment: binding and inhibiting E-selectin
T1 sequence (P16581 22-610): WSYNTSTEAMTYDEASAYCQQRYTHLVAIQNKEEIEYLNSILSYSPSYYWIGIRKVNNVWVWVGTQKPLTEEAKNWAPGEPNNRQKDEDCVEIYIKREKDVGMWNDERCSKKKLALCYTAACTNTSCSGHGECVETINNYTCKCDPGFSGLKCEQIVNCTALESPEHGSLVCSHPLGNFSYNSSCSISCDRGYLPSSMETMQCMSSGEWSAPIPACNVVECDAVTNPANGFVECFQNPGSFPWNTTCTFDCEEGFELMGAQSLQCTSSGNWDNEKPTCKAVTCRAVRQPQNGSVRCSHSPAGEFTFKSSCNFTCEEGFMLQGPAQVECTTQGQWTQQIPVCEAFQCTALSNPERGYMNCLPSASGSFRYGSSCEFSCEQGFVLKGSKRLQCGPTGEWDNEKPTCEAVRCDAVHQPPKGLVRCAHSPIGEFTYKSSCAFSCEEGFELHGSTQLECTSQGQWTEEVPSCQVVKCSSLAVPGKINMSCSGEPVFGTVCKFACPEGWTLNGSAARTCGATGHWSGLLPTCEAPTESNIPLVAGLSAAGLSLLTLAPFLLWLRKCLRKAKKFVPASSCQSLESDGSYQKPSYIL

animals [6] = settings: in vivo
humans [7] = settings: human, in vivo
sE-selectin = settings: cited from earlier work

CCCCCCCCCCCCCCC(Cl)C(=O)O (stereo not shown) [Compound 2-CIPA, 2-chloropalmitic acid]
adherence of human neutrophils [1]: promoted neutrophil adhesion; also recorded: increases adhesion of neutrophils

tocilizimab: antibody directed against the cytokine, IL-6, approved as an anti-inflammatory drug
patients who died (COVID-19 patients): one | patients who showed improvement (COVID-19 patients): three | patients who stabilized (COVID-19 patients): two

CCCCCCCCCCCCCCCC(=O)O [PA, palmitic acid]
adherence of human neutrophils [1]: did not

C[C@@H]1O[C@@H](O[C@@H]2[C@@H](NC(=O)c3cc(=O)[nH]c(=O)[nH]3)C[C@@H](C(=O)NCCNC(=O)COCCOCC(=O)Nc3cc(S(=O)(=O)O)cc4cc(S(=O)(=O)O)cc(S(=O)(=O)O)c34)C[C@H]2O[C@@H]2O[C@H](CO)[C@H](O)[C@H](O[C@@H](CC3CCCCC3)C(=O)O)[C@H]2OC(=O)c2ccccc2)[C@@H](O)[C@H](O)[C@@H]1O [GMI-1070]
toxicities (animals [2]): no measurable toxicities | toxicity (animals [2]; relatively high concentrations): no toxicity | toxicities (humans [3]; Phase 1 clinical trials): no measurable toxicities | toxicity (humans [3]; humans, relatively high concentrations): no toxicity

TNFα
expression of E-selectin [4]: stimulate expression of E-selectin | expression of E-selectin [5]: stimulate expression of E-selectin

CC[C@H]1C[C@@H](C(=O)NCCNC(=O)CCOCCOCCOCCOCCOCCOCCOCCOCCOCCOCCOCCOC)C[C@@H](O[C@@H]2O[C@H](CO)[C@H](O)[C@H](O[C@@H](CC3CCCCC3)C(=O)[O-])[C@H]2NC(C)=O)[C@@H]1O[C@@H]1O[C@@H](C)[C@@H](O)[C@@H](O)[C@@H]1O.[Na+] [GMI-1271]
antagonism of E-selectin (E-selectin): potent antagonists of E-selectin | toxicities (animals [6]): no measurable toxicities | toxicity (animals [6]): no toxicity | toxicities (humans [7]): no measurable toxicities | toxicity (humans [7]): no toxicity | sE-selectin circulating (plasma) levels (sE-selectin; AML patients, after treatment, all dose groups): significantly (P<0.0001) reduced; also recorded: decreased over the treatment period in all dose groups | decrease of plasma soluble E-selectin from baseline to Day 8 (sE-selectin; end of 6 days of dosing concurrently with MEC chemotherapy): highly significant (p<0.0001) with no dose response

IL-1β: cytokine used to treat endothelial cells
expression of E-selectin [4]: stimulate expression of E-selectin | expression of E-selectin [5]: stimulate expression of E-selectin

B1: IL-10: cytokine used to treat endothelial cells (protein, UniProt P22301 19-178, looked up)
Interleukin-10: SPGQGTQSENSCTHFPGNLPNMLRDLRDAFSRVKTFFQMKDQLDNLLLKESLLEDFKGYLGCQALSEMIQFYLEEVMPQAENQDPDIKAHVNSLGENLKTLRLRLRRCHRFLPCENKSKAVEQVKNAFNKLQEKGIYKAMSEFDIFINYIEAYMTMKIRN
expression of E-selectin [4]: stimulate expression of E-selectin | expression of E-selectin [5]: stimulate expression of E-selectin
